The target in assay [1] is T1, α7nAChR (the α7 nicotinic acetylcholine receptor), allosteric site (Rattus norvegicus, UniProt Q05941).
T1 construct: [3H]; host or cells: wild-type PC12 cells
Nature of the assay: [3H] Ivermectin binding assay on PC12 cell membranes.
Description: PC12 membranes where obtained to perform binding assays. PC12 cells were grown until confluence on 100 mm plates. Growth medium was removed and ice-cold 50 mM Tris-HCl buffer (pH 7.4) containing 4.5 μg/μ1 aprotinin and 0.1 mM phenylmethylsulphonylfluoride (PMSF) were added. Cells were mechanically detached and pelleted by centrifugation (1040×g) for 4 minutes at 4° C. Pellets were homogenized with a Polytron and centrifuged (13000×g) for 20 minutes at 4° C. The pellets were resuspended in fresh buffer and incubated at 37° C. for 10 minutes to remove endogenous neurotransmitters. The samples were subsequently re-centrifuged. The final pellet was resuspended in buffer and the protein concentration determined using the Bradford Reagent (Sigma-Aldrich, St. Louis, MO). The cell membrane preparation was stored at −80° C.
For the binding with PC12 membranes, each incubation was performed in polystyrene tube (VWR International Ltd; Leicestershire, UK) containing 0.25 ml of membranes diluted in Tris-HCl 50 mM buffer (containing 50 μg of PC12 membranes) with 5 nM [3H] […] Thereafter, samples were filtered through Brandel GB glass fibre filters (MD, USA); pre-soaked in 0.5% polyethylenemine by a Harvester (Brandel; MD, USA). Tubes were washed 3 times with ice cold 50 mM Tris-HCl buffer. Radioactivity in the tubes was counted by scintillation spectrometry using a 300 SL Liquid scintillation counter (Lablogic Systems Limited, UK). Specific binding was determined by subtracting the non-specific (cells treated with Ivermectin 30 μM) value to all the tubes.

In the next assay the test system is PC12 cells. Nature of the assay: AChE release / AChE activity in perfusate of treated PC12 cells (Ellman assay). It is filed as cell-based.
The target of assay [2] is allosteric site on the α7 nicotinic-receptor (Rattus norvegicus, UniProt Q05941). Nature of the assay: Binding affinity for the allosteric site of the α7 nicotinic-receptor, using tests for viability.
A further assay concerns the target T2, α7 nicotinic receptor (Rattus norvegicus, UniProt Q05941).
T2 construct: [3H]; host or cells: wild-type PC12 cells
Nature of the assay: Acetylcholine-induced calcium influx (Fluo-8) in PC12 cells. It is filed as cell-based. The procedure: PC12 cells are plated in 200 μl of complete growth medium the day before the experiment in 96 well plates. On the day of the experiment, the Fluo-8 solution (Abcam) is prepared (as provider protocol). Subsequently, 100 μl of growth medium is removed and 100 μl of Fluo-8 solution is added. Treatments with T30 and NBP-14 are added and incubated for 30 minutes in the incubator and 30 minutes room temperature.
After 1 hour, the plate is placed in the fluorescence plate reader (Fluostar). Before reading the fluorescence, acetylcholine (ACh) 100 μM is prepared and placed in the Fluostar injector. For each well, the reading will be formed by a basal fluorescence followed by acetylcholine injection that will induce an increase of calcium via nicotinic receptors. The effects of T30 and NBP-14 are then evaluated.

The subject of assay [3] is Amyloid Precursor Protein (APP). Nature of the assay: Western blot detection of full-length APP in solubilized PC12 cells. It is filed as cell-based. The note with it: 1 hour. The protocol:
PC12 cells are plated with growth medium in Petri Dishes for a week in order to have enough protein to detect APP in PC12 membranes and treated for 1 hour with T30 and NBP-14 before solubilizing the protein. Once the cells have grown until 90% confluence, the growth medium is removed and cells are re-suspended in 2 ml of HBSS. The cells suspension is transferred to a 15 ml tube and centrifuge 5 minutes at 1000 rpm. Then the supernatant is discarded and the pellet is re-suspended in Lysis buffer (20 mM Tris, 137 mM NaCl, 1% Triton X-100, 2 mM EDTA; pH 8) plus protease inhibitors (1 μl:1 ml PMSF and 3 μl:1 ml Aprotinin) and triturated by using a Polytron for 10 seconds. Subsequently, the triturated pellet is distributed in 1.5 ml eppendorfs and rotated or shaken for 2 h at 4° C. […] The Bradford reagent is used to quantify the protein contained in each eppendorf. […]
The steps for electrophoresis are the following: • a) Prepare the lower and the upper acrilamide gels. The % for APP gel is 10% lower gel and 5% stacking gel. • b) Prepare 24 μl of sample at a concentration of 25 μg (determined by the Bradford Assay) (6 μl SB 4× containing β-mercaptoethanol+protein+lisis) and boil them at 100° C. for 5 minutes to denaturalize them. • c) Put the protein marker and the samples in the wells of the gel (20-30 μL). • d) Proceed to Migration: 35 mA (nearly 1 hour). […]

A further assay has as its system Aβ42. Nature of the assay: ELISA detection of Aβ42 in cell culture media. It is filed as cell-based. The note with it: 1 hour. The procedure:
After 1 hour of treatment, the culture media was collected and diluted to 1:100, using culture media as diluent. Four repeats of each diluted sample were then placed in the plate provided by the ELISA detection kit, from AnaSpec (Fremont, CA, USA). The detection was then carried out following the manufacturer's protocol. Briefly, the sample was incubated for 4 h in presence of 50 μl of detection antibody. The plate was then washed seven times with the washing solution, the samples were then incubated with the 3,3′,5,5′-Tetramethylbenzidine (TMB) provided with the kit for 15 min. after the sample revelation the reaction was stopped with the stop solution and the optical density was read at 450 nm.
Accordingly, using immunodetection, the inventors have determined (i) APP levels and (ii) release of amyloid following administration of T30 (5 uM) and NBP14 (0.5 μM).
(In general: ELISA stands for enzyme-linked immunosorbent assay.)

The mark [4] stands for this setting: T30 5 uM + NBP-14 5 nM (1st of 10 values).
[5] abbreviates: T30 5 uM + NBP-14 7 nM (2nd of 10 values).
[6] abbreviates: T30 5 uM + NBP-14 9 nM (3rd of 10 values).
Setting [7] is: T30 5 uM + NBP-14 10 nM (4th of 10 values).
Setting [8] is: T30 5 uM + NBP-14 20 nM (5th of 10 values).
Setting [9] is: T30 5 uM + NBP-14 50 nM (6th of 10 values).
The mark [10] stands for this setting: T30 5 uM + NBP-14 70 nM (7th of 10 values).
Where [11] appears, read: T30 5 uM + NBP-14, 9th of 10 values, concentration unclear.
[12] abbreviates: T30 5 uM + NBP-14, 10th of 10 values, concentration unclear.

Residues, ends and D or L forms follow the SMILES beside them. No end group written: not given here.

T2 sequence (Q05941 23-502): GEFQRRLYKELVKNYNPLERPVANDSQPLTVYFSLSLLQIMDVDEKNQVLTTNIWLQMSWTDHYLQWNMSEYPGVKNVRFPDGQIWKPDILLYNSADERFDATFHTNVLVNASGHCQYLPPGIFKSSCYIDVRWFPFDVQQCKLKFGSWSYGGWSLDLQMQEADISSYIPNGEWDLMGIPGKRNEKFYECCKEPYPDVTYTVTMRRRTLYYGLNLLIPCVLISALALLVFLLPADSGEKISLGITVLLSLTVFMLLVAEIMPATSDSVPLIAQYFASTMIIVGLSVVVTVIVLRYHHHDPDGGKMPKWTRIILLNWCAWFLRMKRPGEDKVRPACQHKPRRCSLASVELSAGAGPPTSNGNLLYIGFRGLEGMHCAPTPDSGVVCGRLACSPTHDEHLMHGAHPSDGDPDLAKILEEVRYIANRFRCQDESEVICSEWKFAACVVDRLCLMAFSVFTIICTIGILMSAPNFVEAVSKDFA
Sequence of allosteric site on the α7 nicotinic-receptor (Q05941 23-502): as above
T1 sequence (Q05941 23-502): as above

On to `CSCC[C@@H]1NC(=O)[C@H](Cc2ccc(O)cc2)NC(=O)[C@H](CO)NC(=O)[C@H](CO)NC(=O)[C@H](Cc2c[nH]c3ccccc23)NC(=O)[C@H](CCCNC(=N)N)NC(=O)[C@H](Cc2c[nH]cn2)NC(=O)[C@H](Cc2ccccc2)NC(=O)[C@H](CCC(=O)O)NC(=O)[C@H](C)NC(=O)[C@H](CCCCN)NC(=O)[C@H](Cc2c[nH]c3ccccc23)NC(=O)[C@H](Cc2c[nH]cn2)NC(=O)[C@H](C(C)C)NC1=O` [Cyclic T14] (cyclo(AEFHRWSSYMVHWK)), for which the “% [3H] Ivermectin binding (Mean ± SEM)” value stood at 98.10 ± 3.28% in assay [1] (100 nM competitor, Table 2, N = 6); 80.81 ± 4.37% in assay [1] (200 nM competitor, Table 2); 79.72 ± 6.76% in assay [1] (500 nM competitor, Table 2); 62.26 ± 17.63% in assay [1] (700 nM competitor, Table 2); 29.006 ± 8.23% in assay [1] (1 μM competitor, Table 2); 13.46 ± 10.40% in assay [1] (2 μM competitor, Table 2). Also, the “AChE activity, T14 combined with Cyclic T14” value in the assay on PC12 cells (T14 10 μM + Cyclic T14 100 nM, 1 hour) worked out at 112.30±1.39. Besides, the “released AChE activity, T30 + NBP-14” value in the assay on PC12 cells (setting [4]) worked out at 130.73±1.84%; in the assay with PC12 cells (setting [5]) it was 111.68±2.26%; in the assay with PC12 cells (setting [6]) it was 92.78±0.99%; in the assay on PC12 cells (setting [7]), 82.56±2.38%; with PC12 cells (setting [8]), 68.90±0.92%; with PC12 cells (setting [9]) it was 65.12±1.32%. Also, the “released AChE activity, T30 + NBP-14” value with PC12 cells (setting [10]) is given as 61.04±0.97%; with PC12 cells (T30 5 uM + NBP-14, 8th of 10 values, concentration unclear), 79.43±1.69%; in the assay on PC12 cells (setting [11]) it was 83.91±1.24%; with PC12 cells (setting [12]), 89.55±1.25%. Also, in the assay on PC12 cells (T30 5 uM, FIG. 14), the “concentration range protective against AChE compensatory effects” value is “high nanomolar concentrations”. In addition, the “affinity (Table 3 feature)” value in assay [2] (✓ = Dream Drug feature 'Nanomolar affinity') is “✓”. Besides, the “receptor specificity (Table 3 feature)” value in assay [2] (✓ = Dream Drug feature 'Specific action at α7 receptor') is given as “✓”. Also, the “calcium influx, T30 + NBP-14” value on α7 nicotinic receptor (setting [4]) is listed as 134.2497±6.85%; on α7 nicotinic receptor (setting [5]) it was 120.8612±8.65%; at α7 nicotinic receptor (setting [6]) it was 113.9162±8.82%; on α7 nicotinic receptor (setting [7]), 140.776±12.16%; on α7 nicotinic receptor (setting [8]) it was 115.83±7.67%; on α7 nicotinic receptor (setting [9]), 110.3213±13.21%. The “calcium influx, T30 + NBP-14” value on α7 nicotinic receptor (setting [10]) stood at 125.9596±0.1%; at α7 nicotinic receptor (T30 5 uM + NBP-14, 8th of 10 values, only 9 concentrations printed (.. 70, 1000, 5000 nM), concentration unclear) it was 99.85±0.32%; at α7 nicotinic receptor (setting [11]), 115.1942±9.84%; on α7 nicotinic receptor (setting [12]), 79.99±14.04%. Moreover, the “concentration range protective against T30-induced calcium influx” value at α7 nicotinic receptor (T30 5 uM, FIG. 13) is “low nanomolar range”. In addition, in assay [3] (T30 5 μM + NBP-14 0.5 μM), the “levels of full length APP (control 100%)” value is 126%±1.12. In addition, the “release of Aβ42 in presence of T30 and NBP-14” value in the assay on Aβ42 (T30 (5 uM) + NBP14 (0.5 μM)) is recorded as “close to control”.

Consider “KAEFHRWSSYMVHWKNQFDHYSKQDRCSDL [T30, reference compound]”, for which the “% [3H] Ivermectin binding (Mean ± SEM)” value in assay [1] (1 nM competitor, Table 1) was found to be 109.16 ± 11.9%; in assay [1] (10 nM competitor, Table 1), 116.63 ± 13.25%; in assay [1] (100 nM competitor, Table 1) it was 106.15 ± 8.04%; in assay [1] (1 μM competitor, Table 1) it was 97.41 ± 7.9%; in assay [1] (5 μM competitor, Table 1), 80.22 ± 3.81%. In addition, the “AChE activity, peptide alone” value in the assay with PC12 cells (10 μM, 1 hour, PC12) is recorded as 129.10±1.18. Besides, in the assay with PC12 cells (T30 5 uM alone, N=3), the “released AChE activity” value is 169.45%±2.11. Further, the “binding affinity for the allosteric site on the α7 nicotinic-receptor” value in assay [2] turned out to be 5 nM. Besides, the “increase of calcium influx” value at α7 nicotinic receptor (PC12 cells) was “about 70%”. Moreover, the “calcium influx (acetylcholine control = 100%)” value at α7 nicotinic receptor (T30 5 uM alone, ACh 100 μM, N=3) was 171.05%±6.21. For the same molecule, in assay [3] (T30 5 μM), the “levels of full length APP (control 100%)” value is on record as 67.82%±6.23. For the same molecule, the “release of Aβ42 compared to control” value in the assay with Aβ42 (T30 (5 uM)) was “approximately 175%”.

Source of the values: patent publication US12139729B2, “Neurodegenerative disorders” (priority 2013, dated 2024).
